Source: article PMC4710668, “Bioactivation of food genotoxicants 5-hydroxymethylfurfural and furfuryl alcohol by sulfotransferases from human, mouse and rat: a comparative study” (Archives of Toxicology, 2014)

How the values were obtained:
Assay in all cases: HMF sulfoconjugation assay
Assay type in all cases: biochemical
mSult2b1b = target: T1, mSult2b1b (Mus musculus, UniProt O35400)
T1 construct: made in house; host or cells: Salmonella typhimurium TA1538 (cytosolic fraction, enzyme not purified)
T1 sequence (O35400 1-338): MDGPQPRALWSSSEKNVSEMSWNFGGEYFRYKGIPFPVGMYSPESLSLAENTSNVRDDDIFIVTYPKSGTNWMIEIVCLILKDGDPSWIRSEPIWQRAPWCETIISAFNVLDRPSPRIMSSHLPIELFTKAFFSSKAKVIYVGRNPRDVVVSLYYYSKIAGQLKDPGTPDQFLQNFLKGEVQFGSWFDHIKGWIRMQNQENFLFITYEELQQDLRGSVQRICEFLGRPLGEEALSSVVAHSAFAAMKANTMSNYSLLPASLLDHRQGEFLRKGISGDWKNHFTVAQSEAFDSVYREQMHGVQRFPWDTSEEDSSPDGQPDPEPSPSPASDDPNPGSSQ
Experimental: (§1) Cytosolic fractions containing individual SULT forms were prepared from transgenic S. typhimurium TA1538. Table S1 in the Supplementary Material provides a summary of the thirty SULTs used in the current study together with references describing the cloning of the respective S. typhimurium TA1538 strains. The expressed SULT forms are denoted with the prefixes h, m and r for human, mouse and rat enzymes, respectively. Bacteria were grown in Luria Broth medium containing ampicillin (100 µg/ml) by stirring for 8 h at 200 revolutions/min at 37 °C. The bacterial suspensions were centrifuged at 5,000 g for 10 min. The sediments were washed twice with 25 ml of 10 mM potassium phosphate buffer (pH 7.4)/50 mM potassium chloride (KCP buffer) and centrifuged again. The pellets were taken up in 800 µl KCP buffer and sonicated thrice for 15 s with 30 s pauses in between. The soluble fraction was attained by centrifuging for 1 h at 100,000 g. The supernatants (in the following termed cytosolic preparations) were frozen at −80 °C. The protein concentrations were determined according to a bicinchoninic acid (BCA) assay protocol. The SULT concentrations in the cytosolic preparations were estimated after electrophoretic separation and immunodetection using inclusion bodies of different SULT forms as standards (Teubner et al. [2007]). The preparation of SULT inclusion bodies and the immunodetection of SULTs is described in the Supplementary Material, which also contains a representative immunoblot of different amounts of rSult1a1standard and a cytosolic preparation of S. typhimurium expressing rSult1a1 (Fig. S1).
(§2) The reactions were conducted in mixtures of 100 µl containing 25–200 µg protein, 50 mM potassium phosphate buffer (pH 7.4), 5 mM MgCl2, 50 µM PAPS and different concentrations of HMF at 37 °C. Preliminary experiments ensured that measurements were recorded under ‘linear’ conditions, i.e., doubling of protein concentration or incubation time was doubling the amount of sulfate ester formed. The reactions were stopped after 30 min by adding 300 µl ice-cold 2-propanol, mixed and centrifuged at 15,000 g for 10 min.
(§3) SMF concentrations of the clear supernatants were analyzed by UPLC-MS/MS. The protocol was adapted from the quantification of SMF in plasma samples of HMF-treated mice (Monien et al. [2009]). In short, the supernatants were analyzed using a UPLC system (Waters) connected to a Quattro Premier XE tandem quadrupole mass spectrometer (Waters) using the negative electrospray ionization mode. Samples of 4 µl were injected into a HSS T3 column (1.8 µm, 2.1 × 100 mm; Waters) and eluted with an isocratic flow of 0.35 ml/min 10 mM ammonium acetate/methanol (95:5). The fragmentation reactions of SMF yielding two principal ions, the sulfate ion radical (m/z = 204.9 → 96.0) and the protonated sulfonate ion (m/z = 204.9 → 81.0) were monitored. The tune parameters were as follows: temperature of the electrospray source 120 °C; desolvation temperature 475 °C; desolvation gas nitrogen (800 l/h); cone gas nitrogen (100 l/h); collision gas argon (indicated cell pressure ~5 × 10^−3 mbar). For the fragmentation of SMF, collision energies were 20 and 23 eV for the transitions m/z = 204.9 → 81.0 and m/z = 204.9 → 96.0, respectively. The dwell time was set to 100 ms, and capillary voltage was set to 0.35 kV. The cone and RF1 lens voltages were 32 and 0.2 V, respectively. SMF was quantified using an external calibration line that was linear in the concentration range of 1.0 nM (4 fmol/injection) to 2,500 (10 pmol/injection) SMF (r ^2 ≥ 0.99). Data acquisition and handling were performed with MassLynx 4.1 software (Waters). The limit of detection (LOD) for this technique of 2.5 nM SMF has been reported (Monien et al. [2009]). In the current study, this corresponds to 10 fmol SMF per injection or a reaction rate of 0.5 pmol SMF/mg/min.

hSULT1A3 = target: T2, hSULT1A3 (Homo sapiens, UniProt P0DMM9)
T2 construct: made in house; host or cells: Salmonella typhimurium TA1538 (cytosolic fraction, not purified)
Experimental: as §1, §2, §3

rSult1c2 = target: T3, rSult1c2 (Rattus norvegicus, UniProt Q9WUW8)
T3 construct: made in house; host or cells: Salmonella typhimurium TA1538 (cytosolic fraction, enzyme not purified)
Experimental: as §1, §2, §3

hSULT1C2 = target: T4, hSULT1C2 (Homo sapiens, UniProt O75897)
T4 construct: made in house; host or cells: Salmonella typhimurium TA1538 (cytosolic fraction, not purified)
Experimental: as §1, §2, §3

rSult1b1 = target: T5, rSult1b1 (Rattus norvegicus, UniProt P52847)
T5 construct: made in house; host or cells: Salmonella typhimurium TA1538 (cytosolic fraction, enzyme not purified)
Experimental: as §1, §2, §3

hSULT1C1 = target: T6, hSULT1C1 (Homo sapiens, UniProt O00338)
T6 construct: made in house; host or cells: Salmonella typhimurium TA1538 (cytosolic fraction, not purified)
Experimental: as §1, §2, §3

rSult1a1 = target: T7, rSult1a1 (Rattus norvegicus, UniProt P17988)
T7 construct: made in house; host or cells: Salmonella typhimurium TA1538 (cytosolic fraction, enzyme not purified)
Experimental: as §1, §2, §3

[1] = HMF sulfoconjugation, Michaelis-Menten fit

T2 sequence (P0DMM9 whole entry): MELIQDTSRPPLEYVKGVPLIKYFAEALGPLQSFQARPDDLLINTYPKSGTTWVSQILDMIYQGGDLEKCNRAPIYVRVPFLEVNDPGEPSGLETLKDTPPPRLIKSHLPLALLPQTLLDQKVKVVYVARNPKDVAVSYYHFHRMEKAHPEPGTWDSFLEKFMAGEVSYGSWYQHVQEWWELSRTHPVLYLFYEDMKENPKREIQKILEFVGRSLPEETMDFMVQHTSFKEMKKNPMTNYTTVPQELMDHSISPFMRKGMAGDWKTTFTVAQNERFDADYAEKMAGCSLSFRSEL
T7 sequence (P17988 whole entry): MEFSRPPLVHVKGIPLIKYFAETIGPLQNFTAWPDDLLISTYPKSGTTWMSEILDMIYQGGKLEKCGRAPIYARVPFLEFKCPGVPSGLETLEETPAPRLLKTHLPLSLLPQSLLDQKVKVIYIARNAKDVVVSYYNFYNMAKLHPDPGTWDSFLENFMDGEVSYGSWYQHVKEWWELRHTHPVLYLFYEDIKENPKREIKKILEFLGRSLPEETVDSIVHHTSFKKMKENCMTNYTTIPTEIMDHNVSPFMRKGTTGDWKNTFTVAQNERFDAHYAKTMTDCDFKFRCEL
T6 sequence (O00338 whole entry): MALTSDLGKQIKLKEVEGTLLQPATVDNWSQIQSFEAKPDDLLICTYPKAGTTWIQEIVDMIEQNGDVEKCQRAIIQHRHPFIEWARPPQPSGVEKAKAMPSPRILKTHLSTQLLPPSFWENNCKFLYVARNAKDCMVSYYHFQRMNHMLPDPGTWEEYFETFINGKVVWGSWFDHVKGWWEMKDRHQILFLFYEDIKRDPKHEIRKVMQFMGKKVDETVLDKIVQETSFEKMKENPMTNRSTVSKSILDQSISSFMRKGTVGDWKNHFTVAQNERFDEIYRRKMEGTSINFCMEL
T3 sequence (Q9WUW8 whole entry): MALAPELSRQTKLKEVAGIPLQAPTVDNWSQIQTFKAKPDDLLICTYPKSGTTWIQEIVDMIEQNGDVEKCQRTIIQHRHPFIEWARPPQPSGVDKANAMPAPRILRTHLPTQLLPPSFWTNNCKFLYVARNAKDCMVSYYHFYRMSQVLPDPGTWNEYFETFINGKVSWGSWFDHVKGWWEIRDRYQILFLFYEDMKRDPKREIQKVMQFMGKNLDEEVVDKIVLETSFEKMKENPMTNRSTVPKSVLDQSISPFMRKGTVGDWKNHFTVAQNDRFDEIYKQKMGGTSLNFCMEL
T4 sequence (O75897 whole entry): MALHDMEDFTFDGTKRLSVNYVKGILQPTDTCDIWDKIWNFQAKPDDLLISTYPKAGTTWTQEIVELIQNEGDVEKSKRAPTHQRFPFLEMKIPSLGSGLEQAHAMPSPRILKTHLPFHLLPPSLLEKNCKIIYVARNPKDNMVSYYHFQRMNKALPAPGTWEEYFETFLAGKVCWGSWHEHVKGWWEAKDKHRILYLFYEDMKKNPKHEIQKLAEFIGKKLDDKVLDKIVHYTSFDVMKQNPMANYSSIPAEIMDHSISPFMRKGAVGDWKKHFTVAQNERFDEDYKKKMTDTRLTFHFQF
T5 sequence (P52847 whole entry): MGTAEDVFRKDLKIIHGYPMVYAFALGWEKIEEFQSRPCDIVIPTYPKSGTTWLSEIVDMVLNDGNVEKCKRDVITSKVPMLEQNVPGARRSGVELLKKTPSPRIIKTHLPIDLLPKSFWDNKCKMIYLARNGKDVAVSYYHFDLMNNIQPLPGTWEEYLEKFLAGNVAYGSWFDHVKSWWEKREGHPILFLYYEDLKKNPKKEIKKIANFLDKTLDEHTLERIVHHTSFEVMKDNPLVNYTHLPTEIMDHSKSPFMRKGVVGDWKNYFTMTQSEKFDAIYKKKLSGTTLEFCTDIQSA

**Q.** For O=Cc1ccc(CO)o1 [HMF, 5-Hydroxymethylfurfural], which Rate of sulfoconjugation (mSult2b1b; 0.1 mM HMF) is on record?
**A.** <0.5 pmol/mg/min

**Q.** And the Rate of sulfoconjugation (mSult2b1b; 1 mM HMF)?
**A.** <0.5 pmol/mg/min

**Q.** And the Rate of sulfoconjugation (mSult2b1b; 10 mM HMF)?
**A.** <0.5 pmol/mg/min

**Q.** And the Rate of sulfoconjugation (mSult2b1b; 100 mM HMF)?
**A.** <0.5 pmol/mg/min

**Q.** What about the Rate of sulfoconjugation (hSULT1A3; 0.1 mM HMF) of the same compound?
**A.** 1.2 ± 0.1 pmol/mg/min

**Q.** And the Rate of sulfoconjugation (hSULT1A3; 1 mM HMF)?
**A.** 12.1 ± 1.5 pmol/mg/min

**Q.** What about the Rate of sulfoconjugation (hSULT1A3; 10 mM HMF) of the same compound?
**A.** 117 ± 12 pmol/mg/min

**Q.** What about the Rate of sulfoconjugation (hSULT1A3; 100 mM HMF) of the same compound?
**A.** 406 ± 39 pmol/mg/min

**Q.** What about the “K M” value (hSULT1A3; [1]) of the same compound?
**A.** 16.7 ± 1.8 mM

**Q.** What about the Rate of sulfoconjugation (rSult1c2; 0.1 mM HMF) of the same compound?
**A.** <0.5 pmol/mg/min

**Q.** What about the Rate of sulfoconjugation (rSult1c2; 1 mM HMF) of the same compound?
**A.** <0.5 pmol/mg/min

**Q.** What about the Rate of sulfoconjugation (rSult1c2; 10 mM HMF) of the same compound?
**A.** 2.3 ± 0.2 pmol/mg/min

**Q.** What about the Rate of sulfoconjugation (rSult1c2; 100 mM HMF) of the same compound?
**A.** 15.0 ± 1.1 pmol/mg/min

**Q.** And the Rate of sulfoconjugation (hSULT1C2; 0.1 mM HMF)?
**A.** 1.1 ± 0.3 pmol/mg/min

**Q.** What about the Rate of sulfoconjugation (hSULT1C2; 1 mM HMF) of the same compound?
**A.** 14.0 ± 1.8 pmol/mg/min

**Q.** And the Rate of sulfoconjugation (hSULT1C2; 10 mM HMF)?
**A.** 115 ± 14 pmol/mg/min

**Q.** And the Rate of sulfoconjugation (hSULT1C2; 100 mM HMF)?
**A.** 285 ± 71 pmol/mg/min

**Q.** What about the “K M” value (hSULT1C2; [1]) of the same compound?
**A.** 18.8 ± 5.4 mM

**Q.** And the Rate of sulfoconjugation (rSult1b1; 0.1 mM HMF)?
**A.** <0.5 pmol/mg/min

**Q.** What about the Rate of sulfoconjugation (rSult1b1; 1 mM HMF) of the same compound?
**A.** 3.4 ± 0.2 pmol/mg/min

**Q.** What about the Rate of sulfoconjugation (rSult1b1; 10 mM HMF) of the same compound?
**A.** 25.2 ± 0.4 pmol/mg/min

**Q.** What about the Rate of sulfoconjugation (rSult1b1; 100 mM HMF) of the same compound?
**A.** 30.8 ± 1.2 pmol/mg/min

**Q.** And the “K M” value (rSult1b1; [1])?
**A.** 15.7 ± 0.9 mM

**Q.** And the Rate of sulfoconjugation (hSULT1C1; 0.1 mM HMF)?
**A.** <0.5 pmol/mg/min

**Q.** What about the Rate of sulfoconjugation (hSULT1C1; 1 mM HMF) of the same compound?
**A.** <0.5 pmol/mg/min

**Q.** And the Rate of sulfoconjugation (hSULT1C1; 10 mM HMF)?
**A.** 4.7 ± 0.3 pmol/mg/min

**Q.** What about the Rate of sulfoconjugation (hSULT1C1; 100 mM HMF) of the same compound?
**A.** 11.0 ± 1.4 pmol/mg/min

**Q.** What about the Rate of sulfoconjugation (rSult1a1; 0.1 mM HMF) of the same compound?
**A.** <0.5 pmol/mg/min

**Q.** And the Rate of sulfoconjugation (rSult1a1; 1 mM HMF)?
**A.** 6.5 ± 2.1 pmol/mg/min

**Q.** And the Rate of sulfoconjugation (rSult1a1; 10 mM HMF)?
**A.** 43.6 ± 13.7 pmol/mg/min

**Q.** And the Rate of sulfoconjugation (rSult1a1; 100 mM HMF)?
**A.** 36.1 ± 16.8 pmol/mg/min

**Q.** And the “K M” value (rSult1a1; [1])?
**A.** 4.9 ± 0.7 mM
